Reference: patent publication US8304416B2, “Chromenone derivatives” (Merck Patent GmbH, priority 2003, dated 2012)

How the values were obtained:
Type in all cases: biochemical
PKB = PKB (Homo sapiens, UniProt P31749); assay: Inhibition of PKB
RAF = assay: Inhibition of RAF
Tie2 = Tie2 (Homo sapiens, UniProt Q02763); assay: Inhibition of Tie2
Chain of Tie2 (Q02763 23-1124, species assumed): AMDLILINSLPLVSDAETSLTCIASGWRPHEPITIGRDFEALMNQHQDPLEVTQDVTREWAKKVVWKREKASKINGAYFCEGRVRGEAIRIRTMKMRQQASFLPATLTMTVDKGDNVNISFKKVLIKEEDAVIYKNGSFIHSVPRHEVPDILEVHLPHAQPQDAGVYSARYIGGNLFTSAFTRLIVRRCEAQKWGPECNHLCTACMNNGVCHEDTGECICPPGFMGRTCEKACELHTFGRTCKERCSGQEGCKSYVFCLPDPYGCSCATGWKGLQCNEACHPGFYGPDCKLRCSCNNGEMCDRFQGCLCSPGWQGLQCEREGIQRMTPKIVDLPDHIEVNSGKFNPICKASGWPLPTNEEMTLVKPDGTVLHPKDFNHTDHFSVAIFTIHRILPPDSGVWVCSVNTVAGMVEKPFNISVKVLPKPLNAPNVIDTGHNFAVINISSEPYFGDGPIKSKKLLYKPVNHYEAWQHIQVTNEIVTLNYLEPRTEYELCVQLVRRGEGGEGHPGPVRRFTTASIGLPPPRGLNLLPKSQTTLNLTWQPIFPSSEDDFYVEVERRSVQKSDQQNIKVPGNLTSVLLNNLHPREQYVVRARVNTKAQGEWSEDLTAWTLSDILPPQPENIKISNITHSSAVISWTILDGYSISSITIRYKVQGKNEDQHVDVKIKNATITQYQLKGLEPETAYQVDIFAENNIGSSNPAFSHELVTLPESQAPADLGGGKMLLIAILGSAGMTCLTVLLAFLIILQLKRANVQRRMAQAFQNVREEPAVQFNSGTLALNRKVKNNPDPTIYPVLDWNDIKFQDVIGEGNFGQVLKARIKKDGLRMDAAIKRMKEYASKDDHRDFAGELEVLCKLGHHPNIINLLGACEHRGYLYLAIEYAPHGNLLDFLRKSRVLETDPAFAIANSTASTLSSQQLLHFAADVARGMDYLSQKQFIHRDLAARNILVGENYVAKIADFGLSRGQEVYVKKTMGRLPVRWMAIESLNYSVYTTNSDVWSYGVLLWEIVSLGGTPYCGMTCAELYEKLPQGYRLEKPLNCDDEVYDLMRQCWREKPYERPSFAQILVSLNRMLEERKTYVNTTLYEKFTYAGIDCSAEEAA

Chain of PKB (P31749 whole entry, species assumed): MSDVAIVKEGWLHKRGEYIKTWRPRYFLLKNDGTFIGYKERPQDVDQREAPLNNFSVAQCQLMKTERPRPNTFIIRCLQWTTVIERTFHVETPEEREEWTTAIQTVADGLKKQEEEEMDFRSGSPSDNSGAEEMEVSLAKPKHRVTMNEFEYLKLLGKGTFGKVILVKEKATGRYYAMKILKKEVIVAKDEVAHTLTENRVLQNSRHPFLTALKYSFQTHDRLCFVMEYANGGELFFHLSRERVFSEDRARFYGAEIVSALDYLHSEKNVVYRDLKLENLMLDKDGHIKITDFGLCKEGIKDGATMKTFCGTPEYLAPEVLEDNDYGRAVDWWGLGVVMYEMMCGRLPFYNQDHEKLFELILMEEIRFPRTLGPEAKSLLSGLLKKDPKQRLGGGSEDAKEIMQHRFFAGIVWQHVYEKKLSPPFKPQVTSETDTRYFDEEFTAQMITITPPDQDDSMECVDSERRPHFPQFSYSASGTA

| Structure (SMILES) | IC50 (PKB) | IC50 (RAF) | IC50 (Tie2) |
| --- | --- | --- | --- |
| Cn1ccnc1C(=O)c1cc(=O)c2cc(O)ccc2o1 | > 10 µM | > 1 µM | > 10 µM |
| Cn1ccnc1C(=O)c1cc(=O)c2c(O)cc(O)cc2o1 | > 10 µM | > 1 µM | > 10 µM |
| O=C(c1ccccn1)c1cc(=O)c2c(O)cc(O)cc2o1 | > 10 µM | > 1 µM | > 10 µM |

Results, then the molecule that gave them:

| IC50 (PKB) | IC50 (RAF) | IC50 (Tie2) | Structure (SMILES) |
| --- | --- | --- | --- |
| > 10 µM | > 1 µM | > 10 µM | O=C(c1cc(=O)c2cc(O)ccc2o1)c1nc2ccccc2s1 |
| > 10 µM | > 1 µM | > 10 µM | O=C(c1ccccn1)c1cc(=O)c2cc(O)ccc2o1 |
| 9.4 µM | > 1 µM | > 10 µM | O=C(c1cc(=O)c2cc(O)ccc2o1)c1ncc(Cl)nc1Cl |
